Source: ChEMBL document CHEMBL1124125, “6-(Alkylamino)-3-aryl-1,2,4-triazolo[3,4-a]phthalazines. A new class of benzodiazepine receptor ligands” (J Med Chem, 1988)

Experiments:
Mus musculus [1] = test: Inhibition of Anti-pentylenetetrazole-induced convulsions in mice following i.p. administration.; type: functional; settings: ip
[2] = Lethal dose when given intraperitoneally in mice; type: toxicity, organism-based; settings: mouse, in vivo, ip
[3] = biological target: GABA-A receptor; anion channel; test: Inhibition of [3H]diazepam binding to GABA-A central benzodiazepine receptor of rat brain homogenate
Mus musculus [4] = test: Dose that prevented tonic extensor seizures and death in 50% of the mice.(ip); type: functional
[5] = biological target: T1, GABA-A receptor; anion channel (Rattus norvegicus) (UniProt O09028+P15431+P18506+P18508+P19969+P20236+P23574+P23576+P28471+P28473+P30191+P62813+P63079+P63138+Q91ZM7+Q9ES14); test: GABA ratio (IC50/IC50 in the presence of 10e-4 GABA).; type: protein-complex assay
Mus musculus [6] = test: Antagonism of Diazepam muscle relaxant effect by compound (60 mg/kg, ip) was measured as the ratio of fallen/treated mice.; type: functional
Mus musculus [7] = test: Antagonism of Diazepam muscle relaxant effect by compound (10 mg/kg, ip) was measured as the ratio of fallen/treated mice.; type: functional
Mus musculus [8] = test: Antagonism of Diazepam muscle relaxant effect by compound (30 mg/kg, ip) was measured as the ratio of fallen/treated mice.; type: functional
Mus musculus [9] = test: Antagonism of Diazepam muscle relaxant effect by compound (3 mg/kg, ip) was measured by the fallen/treated mice.; type: functional
Mus musculus [10] = test: Anticonvulsant activity when lethal dose of strychnine given subcutaneously in mouse; settings: sc
Rattus norvegicus [11] = test: Conditioned Avoidance response activity (CR2) at 10 mg/kg (i.p.) (No. of rats with blocked response/No. of treated rats); type: functional; settings: route intraperitoneal
Mus musculus [12] = species on record: Mus musculus; test: Anticonvulsant activity when maximal electroshock is induced in mouse; type: functional
Mus musculus [13] = test: Anticonvulsant activity when bicuculline given subcutaneously in mouse; type: functional; settings: sc
Mus musculus [14] = test: Activity was measured by rotarod test by intraperitoneal administration in mouse.; type: functional; settings: ip
Rattus norvegicus [15] = test: Minimal effective dose (MED) that significantly increased the number of shocks.(ip); settings: read-out: MED
Rattus norvegicus [16] = test: Minimal effective dose (MED, ip) that significantly increased the number of shocks (anticonflict); type: functional; settings: read-out: MED
Rattus norvegicus [17] = test: Activity was measured by rotarod test by peroral administration in rat; type: functional; settings: po
[18] = biological target: T1, GABA-A receptor; anion channel (Rattus norvegicus); test: Relative inhibition of [3H]diazepam binding to GABA-A receptor of rat forebrain in the presence and absence of GABA(10e-4M)
Rattus norvegicus [19] = test: Effective dose on rat for motor coordination after intraperitoneal administration.; type: functional
Mus musculus [20] = species on record: Mus musculus; test: Anticonvulsant activity of the compound when maximal electroshock is induced in mouse; type: functional
Mus musculus [21] = test: Minimal effective dose on mouse for motor coordination after intraperitoneal administration.; type: functional; settings: ip, read-out: MED
Rattus norvegicus [22] = test: Conditioned Avoidance response activity (CR2) at 20 mg/kg (i.p.) (No. of rats with blocked response/No. of treated rats); type: functional; settings: route intraperitoneal
Mus musculus [23] = test: Minimal effective dose on mouse for motility after intraperitoneal administration.; type: functional; settings: ip, read-out: MED
Mus musculus [24] = test: Effective dose on mouse for motility after intraperitoneal administration.; type: functional
Mus musculus [25] = test: Anticonvulsant activity of the compound when bicuculline given subcutaneously in mouse; type: functional; settings: sc
Rattus norvegicus [26] = test: Minimal effective dose on rat for mortality after intraperitoneal administration. (1/3 animals died); type: functional; settings: ip, read-out: MED
Rattus norvegicus [27] = test: Minimal effective dose on rat for motor coordination after intraperitoneal administration.; type: functional; settings: ip, read-out: MED
Rattus norvegicus [28] = test: Effective dose on rat for motility after intraperitoneal administration.; type: functional
Mus musculus [29] = test: Anticonvulsant activity of the compound when lethal dose of strychnine given subcutaneously in mouse; type: functional; settings: sc
Rattus norvegicus [30] = test: Minimal effective dose on rat for body tone after intraperitoneal administration.; type: functional; settings: ip, read-out: MED
Mus musculus [31] = test: Minimal effective dose on mouse for body tone after intraperitoneal administration.; type: functional; settings: ip, read-out: MED
Mus musculus [32] = test: Effective dose on mouse for motor coordination after intraperitoneal administration.; type: functional
Rattus norvegicus [33] = test: Minimal effective dose on rat for motility after intraperitoneal administration.; type: functional; settings: ip, read-out: MED
Mus musculus [34] = test: Effective dose on mouse for body tone after intraperitoneal administration.; type: functional
Rattus norvegicus [35] = test: Effective dose on rat for body tone after intraperitoneal administration.; type: functional
Mus musculus [36] = test: Minimal effective dose on mouse for mortality after intraperitoneal administration.(1/3 animals died); type: functional; settings: ip, read-out: MED

CCCCNc1nn2c(-c3ccccc3)nnc2c2ccccc12
ED50 (Mus musculus [1]): ≥ 100 mg/kg | LD50 [2]: 600 mg/kg | Ki [3]: 243 nM

COCCN(CCOC)c1nn2c(-c3ccc(N(C)C)cc3)nnc2c2ccccc12
ED50 (Mus musculus [1]): 20 mg/kg | LD50 [2]: 200 mg/kg | Ki [3]: 2650 nM

O=[N+]([O-])c1cc(-c2nnc3c4ccccc4c(N4CCCC4)nn23)ccc1Cl
ED50 (Mus musculus [4]): > 50 mg/kg | LD50 [2]: 200 mg/kg | Ki [3]: 908 nM

CN(C)c1ccc(-c2nnc3c4ccccc4c(N4CCCC4)nn23)cc1
ED50 (Mus musculus [1]): ≥ 75 mg/kg | LD50 [2]: 300 mg/kg | Ki [3]: 1720 nM

COc1ccc(-c2nnc3c4ccccc4c(N4CCCC4)nn23)cc1
ED50 (Mus musculus [4]): > 100 mg/kg | Ratio [5]: 1.1 | Fallen/treated (Mus musculus [6]): 5 | LD50 [2]: 600 mg/kg | Ki [3]: 3.9 nM

COCCN(CCOC)c1nn2c(-c3ccc(O)cc3)nnc2c2ccccc12
ED50 (Mus musculus [4]): > 50 mg/kg | Ratio [5]: 1 | LD50 [2]: 600 mg/kg | Ki [3]: 4.1 nM

c1ccc(-c2nnc3c4ccccc4c(N4CCCC4)nn23)cc1
ED50 (Mus musculus [4]): > 75 mg/kg | Ratio [5]: 1.1 | Fallen/treated (Mus musculus [7]): 4 | Fallen/treated (Mus musculus [8]): 2 | LD50 [2]: 400 mg/kg | Ki [3]: 15.6 nM

CN(C)c1ccc(-c2nnc3c4ccccc4c(N4CCCC4)nn23)c(Cl)c1
ED50 (Mus musculus [4]): > 100 mg/kg | LD50 [2]: 600 mg/kg | Ki [3]: 393 nM

CN1C(=O)CN=C(c2ccccc2)c2cc(Cl)ccc21 [DIAZEPAM]
Fallen/treated (Mus musculus [9]): 8 | ED50 (Mus musculus [10]): 3 mg/kg | CR2 (Rattus norvegicus [11]): 5 block/treat | ED50 (Mus musculus [12]): 14.2 mg/kg | ED50 (Mus musculus [13]): 1.4 mg/kg | ED50 (Mus musculus [14]): 1 mg/kg | minimal effective dose (Rattus norvegicus [15]): 3 mg/kg | minimal effective dose (Rattus norvegicus [16]): 0.25 mg/kg | ED50 (Rattus norvegicus [17]): 15 mg/kg

CC(C)Nc1nn2c(-c3ccccc3)nnc2c2ccccc12
ED50 (Mus musculus [4]): > 75 mg/kg | LD50 [2]: 400 mg/kg | Ki [3]: 306 nM

COCCN(CCOC)c1nn2c(-c3cccc(C)c3)nnc2c2ccccc12
ED50 (Mus musculus [4]): > 100 mg/kg | LD50 [2]: 300 mg/kg | Ki [3]: 181 nM

CCOc1cc(OCC)c(-c2nnc3c4ccccc4c(N4CCCC4)nn23)cc1OCC
ED50 (Mus musculus [4]): > 50 mg/kg | LD50 [2]: 300 mg/kg | Ki [3]: > 3000 nM

CCNc1nn2c(-c3ccccc3)nnc2c2ccccc12
ED50 (Mus musculus [4]): > 50 mg/kg | LD50 [2]: 200 mg/kg | Ki [3]: 37.6 nM | Ratio [18]: 0.9

CN1CCN(c2nn3c(-c4ccccc4)nnc3c3ccccc23)CC1
ED50 (Mus musculus [4]): > 50 mg/kg | Ratio [5]: 0.9 | LD50 [2]: 300 mg/kg | Ki [3]: 37.7 nM

Cc1ccc(-c2nnc3c4ccccc4c(N4CCCC4)nn23)cc1C
ED50 (Mus musculus [4]): > 50 mg/kg | LD50 [2]: 300 mg/kg | Ki [3]: 1970 nM

Nc1nn2c(-c3ccccc3)nnc2c2ccccc12
ED50 (Mus musculus [1]): ≥ 100 mg/kg | LD50 [2]: 600 mg/kg | Ki [3]: 243 nM

CNc1nn2c(-c3ccccc3)nnc2c2ccccc12
ED50 (Mus musculus [4]): > 60 mg/kg | LD50 [2]: 300 mg/kg | Ki [3]: 46.3 nM | Ratio [18]: 1

CCOc1c(Br)cc(Br)cc1-c1nnc2c3ccccc3c(N3CCCC3)nn12
ED50 (Mus musculus [4]): > 100 mg/kg | LD50 [2]: 600 mg/kg | Ki [3]: > 3000 nM

CC(C)(C)Nc1nn2c(-c3ccccc3)nnc2c2ccccc12
ED50 (Mus musculus [1]): ≥ 50 mg/kg | LD50 [2]: 300 mg/kg | Ki [3]: 565 nM

O=C(O)c1ccc(-c2nnc3c4ccccc4c(N4CCCC4)nn23)cc1
ED50 (Mus musculus [4]): > 75 mg/kg | LD50 [2]: 400 mg/kg | Ki [3]: > 3000 nM

COc1ccc(-c2nnc3c4ccccc4c(N4CCCC4)nn23)cc1OC
ED50 (Mus musculus [4]): > 100 mg/kg | LD50 [2]: 500 mg/kg | Ki [3]: > 3000 nM

COc1ccc(-c2nnc3c4ccccc4c(N(C)CC(C)O)nn23)cc1 (configuration not stated)
ED50 (Mus musculus [4]): 9.8 mg/kg | Ratio [5]: 1.4 | LD50 [2]: 300 mg/kg | Ki [3]: 17 nM | minimal effective dose (Rattus norvegicus [16]): 10 mg/kg

COCCN(CCOC)c1nn2c(-c3ccc(OC)cc3)nnc2c2ccccc12
ED (Rattus norvegicus [19]): 600 mg/kg | ED50 (Mus musculus [20]): 50 mg/kg | minimal effective dose (Mus musculus [21]): 6 mg/kg | CR2 (Rattus norvegicus [22]): 10 block/treat | ED50 (Mus musculus [4]): 6.2 mg/kg | CR2 (Rattus norvegicus [11]): 4 block/treat | Ratio [5]: 1.83 | minimal effective dose (Mus musculus [23]): 10 mg/kg | ED (Mus musculus [24]): 60 mg/kg | ED50 (Mus musculus [25]): 4 mg/kg | minimal effective dose (Rattus norvegicus [26]): 1000 mg/kg | minimal effective dose (Rattus norvegicus [27]): 100 mg/kg | ED (Rattus norvegicus [28]): 1000 mg/kg | ED50 (Mus musculus [29]): 50 mg/kg | minimal effective dose (Rattus norvegicus [30]): 300 mg/kg | minimal effective dose (Mus musculus [31]): 6 mg/kg | LD50 [2]: 300 mg/kg | ED50 (Mus musculus [14]): 60 mg/kg | ED (Mus musculus [32]): 60 mg/kg | Ki [3]: 2.6 nM | minimal effective dose (Rattus norvegicus [33]): 300 mg/kg | minimal effective dose (Rattus norvegicus [16]): 3.5 mg/kg | ED (Mus musculus [34]): 100 mg/kg | ED (Rattus norvegicus [35]): 600 mg/kg | ED50 (Rattus norvegicus [17]): 300 mg/kg | minimal effective dose (Mus musculus [36]): 300 mg/kg

c1ccc(CNc2nn3c(-c4ccccc4)nnc3c3ccccc23)cc1
ED50 (Mus musculus [4]): > 75 mg/kg | LD50 [2]: 400 mg/kg | Ki [3]: 243 nM
